{
  "source": "paper PMC12097015",
  "about": "“Development of MDM2‐Targeting PROTAC for Advancing Bone Regeneration” (Advanced Science, 2025)",
  "key": {"rabbit calvaria": {"test_system": "rabbit calvaria", "test": "Rabbit calvarial vertical onlay graft model", "type": "in vivo, New Zealand white rabbits", "details": "eight weeks, CL144 10 μΜ or rhBMP‐2 3.85 μΜ soaked on BCP carrier", "method": "Total six male, New Zealand white rabbits, weighing ≈2.8–3.2 kg were used for the rabbit calvaria onlay graft model. Rabbits were kept in separate cages under standard laboratory conditions with free access to food and water and provided standard meals according to the ARRIVE guidelines. The animals were sacrificed eight weeks postoperatively (n = 6), and each rabbit was divided into three different groups. […] General anesthesia was induced by injecting 65 mg kg^−1 ketamine (Ketalar, Yuhan, Korea) and xylazine (Rompun, Bayer, Korea). A full‐thickness flap was raised under local anesthesia with 2% lidocaine and 1:100 000 epinephrine to expose the calvarial bone. Slits around the sagittal suture were prepared using a trephine bur (7 mm in diameter, 1 mm in depth), and then four perforations of the external cortical bone plate were made. […]\n‐Radiographic analysis: A single‐blinded examiner conducted all the measurements. […] The volume of the newly formed bone within the cylinders was measured.\nThe embedding paraffin blocks were then sectioned into 4 µm thick slices and stained with Masson trichrome. […] Within the cylinder, the total augmented area, area and proportion of newly formed bone, and residual graft materials were measured as previously described.^[ [34] ^]"}, "hBMSCs": {"test_system": "hBMSCs", "test": "Bulk RNA-seq of cultured hBMSCs", "type": "cell-based, human", "details": "CL144 versus Nutlin‐3", "from_the_text": "‐Sample Preparation: In accordance with the manufacturer's instructions, total RNA was extracted using Trizol from hBMSCs treated with Nutlin‐3 or CL144 as well as from control cells. Utilizing an Agilent Bioanalyzer RNA ScreenTape kit (Agilent, 5067–5576), the integrity of the RNA (RIN) was verified. All samples with RIN value > 8.0 were used for sequencing.\n‐Library Construction: RNA‐seq libraries were constructed according to the manufacturer's instructions for the SRSLY Library Prep kit, which were provided by Claretbio (CBS‐K155B‐24). […] This work fragmented and enriched the mRNA using oligo (dT). After ligating the cDNA fragments to adapters, PCR amplification was performed.\n‐Sequencing: The libraries were performed to sequencing on the Nextseq2000 (Illumina) platform, utilizing the SRSLY RNA NanoPlus kit to generate 100 bp paired‐end reads.\n‐Data Analysis: FastQC was used to trim the adaptor sequences and remove low‐quality reads from the raw sequencing data (FASTQ files). After that, Hisat2 v2.2.1 was used to align these clean reads with the Human Genome Reference GRCh38. DESeq2 was used for differential expression analysis, while g: Profiler was used for GO enrichment analysis."}, "osteocalcin (OCN)": {"test_system": "osteocalcin (OCN)", "test": "Immunostaining of osteogenic markers in hBMSCs", "type": "cell-based, human", "details": "10 µM"}, "EGFP‐MDM2": {"test_system": "EGFP‐MDM2", "test": "EGFP-MDM2 fluorescence / live imaging degradation assay", "type": "cell-based", "protocol": "HeLa cells were cultured in DMEM (Welgene, LM001‐05) supplemented with 10% FBS (Welgene, S001‐07). For transient transfection, the cells were seeded at ≈70% confluence. The following day, transfection was performed using Lipofectamine 3000 (Invitrogen, L3000015) for 24 h according to the manufacturer's protocol. The cells were transfected with 100 ng of EGFP‐MDM2 per well in the 96‐well plate and were transfected with 2 µg of MDM2 WT and 2 µg of HA‐ubiquitin, total 4 µg per well in the 6‐well plate.\nTo construct the EGFP‐MDM2 plasmid DNA, MDM2 WT was amplified by PCR using specific primers. The PCR products were digested with BamH1 and EcoR1 to generate compatible ends. The plasmid backbone, EGFP‐C1, previously digested with the same enzyme, was ligated into the digested PCR product using T4 ligase (Biolabs, M0202S). The resulting plasmid construct was confirmed using restriction enzyme digestion and DNA sequencing. MDM2 WT (#16233) and HA‐ubiquitin (#18712) were purchased from Addgene (used primer sequences, see Table S2, Supporting Information).\nReal‐time Live cell imaging (phase contrast, EGFP fluorescence) was performed to monitor EGFP‐MDM2 intensity at 7 min intervals after compound treatment using Cytation5 (Agilent) laser autofocus conditions to capture EGFP fluorescence to assess intensity. For fluorescence imaging, the cells were fixed using 4% PFA and washed three times with 1X dPBS. Fluorescence imaging was performed using the Cytation5. The intensity of fluorescence was assessed by tracking the fluorescence of individual cells in each image using the Time‐lapse analyzer or ROI measure feature of the Fiji ImageJ software (Version 1.54 h, USA)."}, "bone marrow": {"test_system": "bone marrow", "test": "Immunohistochemistry of femur bone marrow in the OVX model", "type": "in vivo", "details": "OVX mice femur", "protocol": "‐Immunohistochemistry: Decalcified femurs were fixed in 4% paraformaldehyde (PFA) at 4 °C for 24 h, rinsed three times with phosphate‐buffered saline (PBS), and decalcified in 12.5 mM EDTA (pH 8.0) for 14 days. The specimens were dehydrated through a graded ethanol series (70%, 80%, 95%, 100%) and embedded in paraffin. Longitudinal sections (3 µm thick) were prepared using a microtome, mounted on glass slides, and dried at 55 °C. For deparaffinization, slides were treated with xylene (four 5‐min treatments) and rehydrated through descending ethanol concentrations (100%, 95%, 80%, 70%) in 2‐min intervals. Immunohistochemistry was performed with a ready‐to‐use IHC/ICC kit (BioVision, Inc.). Sections were incubated overnight at room temperature with primary antibodies (1:100) against MDM2, p53, Bcl‐2, and cleaved caspase‐3, followed by a 20‐min incubation with HRP‐conjugated anti‐mouse IgG polymer. After PBS washes, antigen‐antibody complexes were visualized using 3,3′‐diaminobenzidine (DAB) for 10 min, and sections were counterstained with hematoxylin for 1 minute. The stained sections were imaged using a Slide Scanner (Zeiss, Germany)."}},
  "data": [
    {"smiles": "COc1ccc(C2=N[C@H](c3ccc(Cl)cc3)[C@H](c3ccc(Cl)cc3)N2C(=O)N2CCN(CC(=O)NCCCCCCCCOc3cccc4c3C(=O)N(C3CCC(=O)NC3=O)C4=O)C(=O)C2)c(OC(C)C)c1", "note": "(stereo in doubt) [CL144]", "values": [
      {"measurement": "amount of new bone (histomorphometric analysis)", "setting": "rabbit calvaria", "value": "25.58 ± 11.70", "unit": "%"},
      {"measurement": "COL8A2 expression (log2FC)", "setting": "hBMSCs", "value": 6.02},
      {"measurement": "COL11A1 expression (log2FC)", "setting": "hBMSCs", "value": 6.23},
      {"measurement": "osteocalcin (OCN) protein intensity compared to the control group", "setting": "osteocalcin (OCN)", "value": "no statistically significant difference"},
      {"measurement": "EGFP‐MDM2 maximal degradation efficacy", "setting": "EGFP‐MDM2; 1 µM", "value": 84, "unit": "%"},
      {"measurement": "Dmax (EGFP signal intensity)", "setting": "EGFP‐MDM2; EGFP‐MDM2 expressing cells, 1 nM to 50 µM, n = 3", "value": 1, "unit": "μΜ"},
      {"measurement": "DC50", "setting": "EGFP‐MDM2; EGFP‐MDM2 expressing cells, 1 nM to 50 µM, n = 3, read-out: DC50 (EGFP signal intensity)", "value": 250, "unit": "nM"},
      {"measurement": "concentration at which maximum degradation efficiency was achieved", "setting": "EGFP‐MDM2; live imaging, 0.01 to 10 µM", "value": 10, "unit": "µM"},
      {"measurement": "nuclear EGFP signal", "setting": "EGFP‐MDM2; live imaging, treatment for 4 h", "value": "almost completely turned off the nuclear EGFP signal"},
      {"measurement": "expression of apoptosis markers Bcl‐2 or cleaved caspase‐3 (bone marrow toxicity)", "setting": "bone marrow; IHC", "value": "no corresponding increase"},
      {"measurement": "MDM2 expression (IHC)", "setting": "bone marrow; compared to Con and DMSO group", "value": "effectively reduced MDM2 expression"},
      {"measurement": "p53 expression (IHC)", "setting": "bone marrow; compared to Con and DMSO group", "value": "significantly increased p53 expression"}
    ]}
  ]
}
